# From US20150265644A1, “THERAPEUTIC METHODS AND COMPOSITIONS FOR TREATING DIABETES UTILIZING DITERPENOID COMPOUNDS” (Orient Europharma Co., Ltd., priority 2014, published 2015)
# Key:
# [1] = Plasma glucose after single intraperitoneal injection in mice; format: in vivo; settings: 60 min; for dose giving significant decrease of plasma glucose level: single i.p. dose; for plasma glucose level: 0.1-10 mgkg^−1 i.p., dose-dependent
# Description: The 4-week-old male ICR mice were purchased from the Animal Center of the College of Medicine, National Taiwan University (Taipei, Taiwan) with delicate humane care. This animal study was conducted by following the University ethical guidelines and the ‘Guide for the Care and Use of Laboratory Animals’ published by the US National Institutes of Health (NIH publication no. 85-23, revised 1996). The animal experiments were approved by the Institutional Animal Care and Use Committee (IACUC) of the National Taiwan University (IACUC No. 20110073). Animals were housed in a room at the constant temperature, 22±1° C., with 12 hours light and dark cycles.
# (§1) After three days of acclimatization, the mice had free access to a standard rodent chow (normal mice), a standard rodent chow after single 250 mgkg^−1 streptozotocin (STZ) intraperitoneal injection (TIDM mice), and a fat-rich chow diet and fructose-sweetened water (T2DM mice) for 4 weeks. The induction of Type 1 DM was assessed and confirmed when the mice had plasma glucose levels ≧350 mgdL^−1, accompanied with polyuria, hyperphagia and decreased body weight. The induction Type 2 DM in the mice was assessed by measuring fasting plasma glucose levels and confirmed when plasma glucose level was ≧150 mgdL^−1 after the 4-week induction. The animals were assigned randomly into three groups, with seven animals in each group. In group I, the mice were treated with vehicle, 2% DMSO in normal saline, as the negative control. In group II, the mice were intraperitoneally treated with borapetoside A (0.1-10 mgkg^−1). In […], the mice received intraperitoneally metformin (300 mgkg^−1; Sigma Chemical Co., St. Louis, Mo., U.S.A.) or insulin (0.5 IUkg^−1; Insulin Actrapid® HM; Novo Nordisk, Denmark). In the acute study, mice under anesthesia received a single intraperitoneal administration of borapetoside A, negative control, or positive control. In the subacute study, mice received intraperitoneal administrations of borapetoside A, vehicle, or insulin twice a day for seven days.
# (§2) Blood samples were collected from the orbital vascular plexus of the mice under anesthesia. Blood samples were then centrifuged at 13000 rpm for 5 min, and the plasma samples were collected and kept on ice prior to the assay. The plasma glucose concentration was measured by Glucose Kit Reagent (Biosystems S.A., Barcelona, Spain) following the manufacturer's instructions, and the insulin levels were estimated using mouse insulin ELISA kit (Mercodia AB, Uppsala, Sweden).
# [2] = Intraperitoneal glucose tolerance test; format: in vivo, mice
# Description: as §1, §2
# The mice were maintained under anesthesia throughout the procedure. Glucose (2.0 gkg^−1) was administered intraperitoneally. Blood samples were collected from the orbital vascular plexus at 0, 30, 60, 120 min. The concentrations of the plasma glucose were measured, and the values of AUC were calculated accordingly.
# liver = assay: Glycogen content in liver in vivo; design: species or system mice; settings: 10 mgkg^−1 i.p., 60 minutes
# Description: The mice were injected with borapetoside A (10 mgkg^−1, interperitoneal) for 60 minutes or insulin (0.5 IUkg^−1, interperitoneal) for 30 minutes. After the treatment, the anesthetic mice were sacrificed by cervical dislocation to collect the soleus muscle and liver. About 40 mg of each sample was dissolved in 1 mol/L KOH at 75° C. for 30 min. The dissolved homogenate was neutralized by glacial acetic acid and then incubated overnight in acetate buffer (0.3 mol/L sodium acetate, pH 4.8) containing amyloglucosidase (Sigma, St. Louis, Mo.). The mixture was then neutralized with 1 mol/L NaOH to stop the reaction. The glycogen contents in the tissue samples were determined as μg of glucose per mg of tissue (wet weight).
# phosphor-AS160 (Thr^642) = assay: Western blot of liver, phospho-AS160; format: in vivo; settings: mice with type 1 DM, 10 mgkg^−1 i.p. twice a day for 7 days
# Description: After three days of acclimatization, the mice had free access to a standard rodent chow (normal mice), a standard rodent chow after single 250 mgkg^−1 streptozotocin (STZ) intraperitoneal injection (TIDM mice), and a fat-rich chow diet and fructose-sweetened water (T2DM mice) for 4 weeks. The induction of Type 1 DM was assessed and confirmed when the mice had plasma glucose levels ≧350 mgdL^−1, accompanied with polyuria, hyperphagia and decreased body weight. The induction Type 2 DM in the mice was assessed by measuring fasting plasma glucose levels and confirmed when plasma glucose level was ≧150 mgdL^−1 after the 4-week induction. […]
# Western blot analysis was carried out by known methods with a slight modification. […] After centrifuging the homogenates at 10,000 g for 30 minutes, the protein concentrations were determined by using a BCA Protein Assay Kit (Pierce Biotechnology, Rockford, Ill.). […] The membranes were analysed by using the antibodies against phospho-insulin receptor β (IRβ) (Tyr^1345), phospho-Akt (Ser^473), phosphor-AS160 (Thr^642), AS160 (Cell Signaling Technology, Beverly, Mass.), IRβ, Akt, β-Actin (Santa Cruz Biotechnology, Santa Cruz, Calif.), GLUT2 (Abcam, Cambridge, UK), and PEPCK (a gift from Professor D K Granner), respectively. […] The intensity of each band was quantified with ImageQuant.
compound,measurement,setting,value
C[C@@]12C[C@@H](c3ccoc3)OC(=O)[C@@H]1C[C@@H]1OC(=O)[C@@]3(O)[C@@H](O[C@@H]4O[C@H](CO)[C@@H](O)[C@H](O)[C@H]4O)CC[C@@H]2[C@@]13C [borapetoside A],dose giving significant decrease of plasma glucose level,[1]; mice with type 2 DM,higher than 0.3 mgkg^−1
same,plasma glucose level,[1]; normal mice,lowered
same,dose giving significant decrease of plasma glucose level,[1]; normal mice,≥ 1 mgkg^−1
same,plasma glucose level,[1]; type 1 DM mice,lowered
same,plasma glucose level,[1]; type 2 DM mice,lowered
same,increase of plasma glucose level at 30 min,"[2]; 0.1, 1, and 10 mgkg^−1, compared to the vehicle group, normal and type 2 DM mice",significantly suppressed
same,"area under the curve (AUC) of plasma glucose, % of vehicle control","[2]; normal mice, 0.1 mgkg^−1",78.8±3.0%
same,"area under the curve (AUC) of plasma glucose, % of vehicle control","[2]; normal mice, 1 mgkg^−1",69.9±7.1%
same,"area under the curve (AUC) of plasma glucose, % of vehicle control","[2]; normal mice, 10 mgkg^−1",68.91±3.5%
same,"area under the curve (AUC) of plasma glucose, % of vehicle control","[2]; type 2 DM bearing mice, 0.1 mgkg^−1",74.9±4.5%
same,"area under the curve (AUC) of plasma glucose, % of vehicle control","[2]; type 2 DM bearing mice, 1 mgkg^−1",71.1±3.2%
same,"area under the curve (AUC) of plasma glucose, % of vehicle control","[2]; type 2 DM bearing mice, 10 mgkg^−1",68.9±1.9%
same,"glycogen content in liver, % of vehicle control",liver; mice with type 1 DM,196.9±15.6%
same,"glycogen content in liver, % of vehicle control",liver; mice with type 2 DM,146.1±12.0%
same,"glycogen content in liver, % of vehicle control",liver; normal mice,257.8±15.8%
same,phosphorylated AS160 in liver,phosphor-AS160 (Thr^642),increased
